Reference: paper PMC6917733 (Scientific Reports, 2019)
Several values for one entry are separate records, joined by “and”; a condition that tells them apart may be missing. Equal entries are not always repeated. Bridge positions count the residues as written; N and C are the ends. Peptide text beside a SMILES is read from it.

Legend:
[1] = target: EGFP-tagged human vasopressin V1b receptor (human) (UniProt P47901)
[2] = target: EGFP-tagged human vasopressin V2 receptor (human) (UniProt P30518)
[3] = target: EGFP-tagged human oxytocin receptor (human) (UniProt P30559)
[4] = target: EGFP-tagged human vasopressin V1a receptor (human) (UniProt P37288)
[5] = target: EGFP-tagged human vasopressin V2 receptor (human) (UniProt P30518); remark: listed apart in the source
[6] = target: EGFP-tagged human vasopressin V1b receptor (human) (UniProt P47901); remark: listed apart in the source
[7] = target: EGFP-tagged human oxytocin receptor (human) (UniProt P30559); remark: listed apart in the source
human V2R [8] = target: T1, human V2R (Homo sapiens, UniProt P30518); assay: β-arrestin-1 recruitment BRET at V2R
human V1aR [9] = target: T2, human V1aR (Homo sapiens, UniProt P37288); assay: β-arrestin-2 recruitment BRET at V1aR
human OTR [10] = target: T3, human OTR (Homo sapiens, UniProt P30559); assay: IP1 accumulation (IP-One Gq assay), HEK293 cells expressing OTR
T3 sequence (P30559 1-389): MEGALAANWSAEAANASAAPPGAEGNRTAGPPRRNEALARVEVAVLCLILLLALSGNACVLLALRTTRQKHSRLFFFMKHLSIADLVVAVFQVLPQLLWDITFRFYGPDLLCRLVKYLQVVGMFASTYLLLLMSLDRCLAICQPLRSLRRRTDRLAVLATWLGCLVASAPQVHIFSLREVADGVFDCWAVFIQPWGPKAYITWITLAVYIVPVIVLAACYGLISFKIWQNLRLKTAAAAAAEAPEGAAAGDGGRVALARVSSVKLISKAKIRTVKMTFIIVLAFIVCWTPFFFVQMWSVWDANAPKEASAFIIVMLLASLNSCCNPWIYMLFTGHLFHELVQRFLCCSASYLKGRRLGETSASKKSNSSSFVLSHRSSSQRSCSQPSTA

human V2R [11] = target: T1, human V2R; assay: cAMP accumulation (LANCE Ultra cAMP), HEK293 cells expressing V2R
human V1bR [12] = target: T4, human V1bR (Homo sapiens, UniProt P47901); assay: β-arrestin-2 recruitment BRET at V1bR; format: cell-based; parameters: expressed in transfected cells; host or cells: HEK293; settings: for EC50: β-arrestin-2 recruitment
T4 sequence (P47901 1-424): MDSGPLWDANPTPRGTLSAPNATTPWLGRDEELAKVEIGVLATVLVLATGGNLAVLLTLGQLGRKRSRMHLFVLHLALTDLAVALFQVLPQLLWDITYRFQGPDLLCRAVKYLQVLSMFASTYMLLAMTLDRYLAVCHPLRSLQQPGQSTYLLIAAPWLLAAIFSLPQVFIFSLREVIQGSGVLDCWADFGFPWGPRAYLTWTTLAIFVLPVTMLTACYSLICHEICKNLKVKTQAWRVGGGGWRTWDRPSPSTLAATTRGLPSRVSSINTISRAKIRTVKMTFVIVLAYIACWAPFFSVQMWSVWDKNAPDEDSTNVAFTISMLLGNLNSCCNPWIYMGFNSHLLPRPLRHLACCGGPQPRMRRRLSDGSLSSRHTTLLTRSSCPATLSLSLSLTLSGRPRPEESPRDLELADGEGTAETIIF

human OTR [13] = target: T3, human OTR; assay: β-arrestin-2 recruitment BRET at OTR
human V1aR [14] = target: T2, human V1aR; assay: Antagonist screen and Schild regression analysis (IP1) at V1aR
human V1bR [15] = target: T4, human V1bR; assay: IP1 accumulation (IP-One Gq assay), HEK293 cells expressing V1bR
[16] = tested on: V2R-mediated ERK 1/2 phosphorylation; assay: Immunoblotting for ERK 1/2 phosphorylation in HEK293 cells expressing V2R; format: cell-based, human; settings: 1 µM peptide
Experimental: Immunoblotting was performed as described previously. Briefly, following an overnight incubation and 16 h starvation HEK293 cells transiently expressing human V2R were treated with 1 µM I8-arachnotocin or 1 µM VP prepared in DMEM. Cells were incubated with peptide ligands at 37 °C for indicated periods and 1 mL of chilled 1x phosphate-buffered saline were used to terminate the incubation. After freeze-thaw cycle in liquid nitrogen cells were solubilized in 100 µl of lysis buffer (50 mM HEPES, 0.5% NP-40 substitute, 50 mM glycerol-2-phosphate, 250 mM NaCl, 5 mM EDTA, 2 mM imidazole, 1 mM Na3VO4, 1 mM hepta-molybdate, pH adjusted to 7.0 with NaOH), freshly added 1 mM PMSF, one cOmplete Mini EDTA-free tablet (Roche) and one PhosSTOP tablet (Roche) and then centrifuged at 10,000 × g for 10 min. The bicinchoninic acid assay (Micro-BCA kit, Pierce) was used to measure total protein content. Phosphorylated and total ERK 1/2 were detected by immunoblotting on the same membrane using the same exposure method with an anti-phospho-p44/42 MAPK antibody (ERK 1/2) (1:1,000; Cell Signaling Technology) and an anti-p44/42 MAPK (ERK 1/2) (1:1,000; Cell Signaling Technology), respectively. Detection and quantification of resulting bands were executed by secondary antibodies (Donkey anti rabbit 680RD and […]) and Odyssey Clx (LiCor Biosciences) infrared fluorescent imaging system, respectively.

human V2R [17] = target: T1, human V2R; assay: β-arrestin-2 recruitment BRET at V2R; format: cell-based; parameters: expressed in transfected cells; host or cells: HEK293
human V1aR [18] = target: T2, human V1aR; assay: IP1 accumulation (IP-One Gq assay), HEK293 cells expressing V1aR; settings: concentrations up to 10 µM

I8-arachnotocin (peptide)
IP1 accumulation (Gαq) in HEK293 cells expressing human V1bR; EC50 [1]: 1200 nM
IP1 accumulation (Gαq) in HEK293 cells expressing human V1bR; Emax relative to VP [1]: 104%
cAMP accumulation (Gαs) in HEK293 cells expressing human V2R; EC50 [2]: 34 nM
cAMP accumulation (Gαs) in HEK293 cells expressing human V2R; Emax relative to VP [2]: 99%
IP1 accumulation (Gαq) in HEK293 cells expressing human OTR; EC50 [3]: 790 nM
IP1 accumulation (Gαq) in HEK293 cells expressing human OTR; Emax relative to OT [3]: 62%
Schild regression of VP-induced IP1 accumulation at human V1aR in the presence of 1, 3 and 10 µM I8-arachnotocin (blocks VP at V1aR); pA2 [4]: 6.25
Schild regression of VP-induced IP1 accumulation at human V1aR in the presence of 1, 3 and 10 µM I8-arachnotocin (blocks VP at V1aR); pA2 as a concentration [4]: 558 nM
non-β-arrestin-dependent signaling at V2R as restated in the discussion; EC50 [5]: 50 nM
β-arrestin-dependent signaling (β-arrestin recruitment) at V2R as restated in the discussion; EC50 [5]: > 100000 nM
β-arrestin-2 recruitment to V1bR (BRET) against I8-arachnotocin concentration; EC50 [6]: 1200 nM
β-arrestin-2 recruitment to OTR (BRET) against I8-arachnotocin concentration; EC50 [7]: 5700 nM

CC[C@H](C)[C@@H]1NC(=O)[C@H](Cc2ccccc2)NC(=O)[C@@H](N)CSSC[C@@H](C(=O)N2CCC[C@H]2C(=O)N[C@H](C(=O)NCC(N)=O)[C@@H](C)CC)NC(=O)[C@H](CC(N)=O)NC(=O)[C@H]([C@@H](C)O)NC1=O [I8-arachnotocin] (H-CFITNCPIG-NH2; disulfide 1-6; N-terminus assumed)
β-arrestin-1 recruitment kinetics (human V2R [8]; 10 µM ligand, time-dependent): failed to recruit β-arrestin-1
β-arrestin-1 recruitment (human V2R [8]; up to 100 µM): no β-arrestin-1 recruitment
β-arrestin-2 recruitment kinetics (human V1aR [9]; 10 µM ligand): absent
β-arrestin-2 recruitment (human V1aR [9]; concentration up to 100 µM): no I8-arachnotocin-induced β-arrestin-2 recruitment was detected
EC50 (human OTR [10]; EC50, IP1 accumulation, G protein-mediated, OTR): 790 nM
Emax (human OTR [10]; HEK293): 62 ± 6%
type of agonism (human OTR [10]; OTR, second messenger signaling): partial agonist
fold less potent compared to the endogenous peptide (human OTR [10]; OTR, vs OT): 65 fold
EC50 (human OTR [10]; pEC50 (as logEC50 ± SEM), IP1 accumulation, OTR): 776 nM
EC50 (human V2R [11]; EC50, cAMP accumulation, G protein-mediated, V2R): 34 nM
Emax (human V2R [11]; HEK293): 99 ± 3%
type of agonism (human V2R [11]; V2R, second messenger signaling): full agonist
fold less potent compared to the endogenous peptide (human V2R [11]; V2R, vs VP): 5,000 fold
EC50 (human V2R [11]; pEC50 (as logEC50 ± SEM), cAMP accumulation, V2R): 33.9 nM
Emax (human V1bR [12]): 65 ± 5%
bias (method of Kenakin) compared to VP (human V1bR [12]; V1bR, G protein vs β-arrestin-2): did not detect differences
EC50 (human V1bR [12]; V1bR, read-out: EC50): 1200 nM
EC50 (human V1bR [12]; V1bR, read-out: pEC50 (as logEC50 ± SEM) (converted)): 1200 nM
Emax (human OTR [13]): 32 ± 5%
EC50 (human OTR [13]; EC50, β-arrestin-2 recruitment, OTR): 5700 nM
β-arrestin-2 recruitment kinetics (human OTR [13]; OTR, 10 µM ligand): absent
bias (method of Kenakin) compared to OT (human OTR [13]; OTR, G protein vs β-arrestin-2): did not detect differences
EC50 (human OTR [13]; pEC50 (as logEC50 ± SEM), β-arrestin-2 recruitment, OTR): 5750 nM
pA2 expressed as concentration (human V1aR [14]; Schild regression at V1aR): 558 nM and ~ 558 nM
pA2 (human V1aR [14]; Schild regression, VP curves in presence of 1, 3, 10 µM I8-arachnotocin): 6.25 and 6.253
Schild regression slope (human V1aR [14]; V1aR, VP as agonist): 1.28 ± 0.02
type of antagonism (human V1aR [14]; V1aR, dextral shift without affecting Emax): competitive antagonist
IP1 levels in antagonist screen (human V1aR [14]; VP (0.55 nM) in the presence of 1 and 10 µM I8-arachnotocin): lower IP1 levels than VP alone
EC50 (human V1bR [15]; EC50, IP1 accumulation, G protein-mediated, V1bR): 1200 nM
Emax (human V1bR [15]; HEK293): 104 ± 8%
type of agonism (human V1bR [15]; V1bR, second messenger signaling): full agonist
fold less potent compared to the endogenous peptide (human V1bR [15]; V1bR, vs VP): 750 fold
EC50 (human V1bR [15]; pEC50 (as logEC50 ± SEM), IP1 accumulation, V1bR): 1170 nM
course of ERK 1/2 phosphorylation after the peak (late phase, 30–120 min) ([16]; 1 min to 2 h): decreased over time
time of peak ERK 1/2 phosphorylation ([16]; HEK293 expressing human V2R): 5 min
difference non-β-arrestin-dependent vs β-arrestin-dependent EC50 (human V2R [17]): > 2,000 fold
β-arrestin-2 recruitment kinetics (human V2R [17]; 10 µM ligand): absent
β-arrestin-2 recruitment (human V2R [17]; up to a concentration of 100 µM): did not recruit β-arrestin-2
EC50 (human V2R [17]; β-arrestin-1 or -2 recruitment, read-out: EC50 of β-arrestin-dependent signaling pathway): > 100000 nM
activation of V1aR (human V1aR [18]): No activation

oxytocin (from UniProt P01178 20-28) (peptide)
IP1 accumulation (Gαq) in HEK293 cells expressing human OTR; EC50 [3]: 12 nM
β-arrestin-2 recruitment to OTR (BRET) against OT concentration; EC50 [7]: 170 nM
